Patent publication US20240101602A1, “ANTIMICROBIAL PEPTIDES AND METHOD OF PREVENTING OR TREATING INFECTION BY USING THE SAME” (priority 2020, published 2024)
In brackets after ≈: the same amount, converted by molar mass. Where two headings read alike, the source gives them in different places. Residues, ends and D or L forms follow the SMILES beside them. *: point of attachment. Myristoyl = CCCCCCCCCCCCCC(=O)*

Columns and labels:
Cgl FST02 = assay type: cell-based, Colletotricum gloeosporioides
Procedure: (§1) The experiments were conducted in an optimal minimal medium for each pathogen. The media and growth conditions were described in Tables 2 and 3. MIC and MBC values were determined following the procedures described above. […] Fifty microliters of serially diluted peptides (2-fold the final concentration) were added in a 96-well polystyrene plate with 50 μL of the fungal spore suspension. […] The plates were incubated at an optimal temperature without shaking. […] MFC was determined as the lowest peptide concentration at which no fungal growth was observed.

[1] = test system: Candida albicans 89 (echinocandin-resistant)
[2] = test system: Candida albicans 12-99 (fluconazole-resistant)
Botrytis cinerea = assay type: cell-based
Procedure: as §1

Erwinia chrysanthemi = assay type: cell-based
Procedure: (§2) The effect of peptide length on the antimicrobial activity was investigated by deciding the minimal inhibitory concentration (MIC) and minimal bactericidal concentration (MBC) for each peptide against the pathogen with the media and growth conditions of phytopathogenic bacteria and E. coli as described in Table 1. Single bacterial colony grown on an optimal rich agar medium was picked, and each grew in 3 mL of the same rich liquid medium for 4 to 6 h. For experiments carried out in the rich medium, the bacterial broth culture was then diluted in the same medium to give a final concentration of OD600=0.08, and then further diluted 100 folds in the same medium. For experiments carried out in the minimal medium, the bacterial cells were collected from the bacterial liquid culture by centrifugation, re-suspended in an optimal minimal medium to give a final concentration of OD600=0.08, and then further diluted 100 folds in the same minimal medium. Fifty microliters of serially diluted peptides (2-fold the final concentration) were added in a 96-well polystyrene plate with 50 μL of the bacterial culture. […] The plates were incubated at an optimal temperature without shaking. […] MBC was determined as the lowest peptide concentration at which no colonies formed. The experiments were conducted in an optimal minimal medium for each pathogen. The media and growth conditions were described in Tables 2 and 3. MIC and MBC values were determined following the procedures described above. […] Fifty microliters of serially diluted peptides (2-fold the final concentration) were added in a 96-well polystyrene plate with 50 μL of the fungal spore suspension.

[3] = test system: Pectobacterium carotovorum subsp. carotovorum; assay type: cell-based
Procedure: as §2

Bc = experiment: In planta pathogen inoculation assay, lesion diameter; assay type: in vivo, Botrytis cinerea; conditions: detached leaves of tomato L390 and leaves of Arabidopsis Col0; final peptide concentration 16 μg/mL; 47 to 70 hours post-inoculation
[4] = test system: bacteria, fungal spores, and fungal mycelia; assay type: cell-based; conditions: SYTOX Green, crude peptides, room temperature in dark for 2 h
[5] = test system: Ralstonia solanacearum strain Pss190; conditions: Rs Pss190; optimal minimal medium, crude peptides (Table 9)
[6] = test system: Ralstonia solanacearum strain Pss4; conditions: Rs Pss4; optimal minimal medium, crude peptides (Table 9)
Pcc = experiment: In planta pathogen inoculation assay, lesion diameter; assay type: in vivo, Pectobacterium carotovorum subsp. carotovorum; conditions: detached leaves of tomato L390 and leaves of Arabidopsis Col0; final peptide concentration 16 μg/mL; 16 to 28 hours post-inoculation
[7] = test system: Agrobacterium tumefaciens strain Atu C58C1; conditions: rich medium, 24 h, purified peptides
[8] = test system: Escherichia coli strain DH5a; conditions: Eco DH5α; rich medium, 24 h, purified peptides
[9] = Circular dichroism spectroscopy, secondary structure deconvolution
[10] = test system: Xanthomonas euvesicatoria strain Xvt28; experiment: IC50 of bacterial growth (OD600) in rich liquid medium; assay type: cell-based; conditions: Xev Xvt28, 24 h, purified peptides
Procedure: (§3) To measure the antimicrobial activity, single colony grown on an optimal rich agar medium for each bacterium was picked and grew in 3 mL of the same rich liquid medium for 4 to 6 h. The bacterial culture was then diluted in the same medium to give a final concentration of OD600=0.08 and then further diluted […] in the same medium. In each well of a 96-well polystyrene plate, 90 μL of the diluted culture was mixed with 10 μL of the peptide to give a peptide concentration of 0, 2, 10, and 20 μg/mL (final cell concentration is 5×10^5 CFU/mL). OD600 was measured after incubation at an optimal temperature for 24 h. IC50 was determined as the lowest peptide concentration inhibiting 50% of bacterial growth.

[11] = test system: Xanthomonas campestris pv. campestris strain Xcc17; experiment: as above; assay type: cell-based; conditions: Xcc Xcc17, 24 h, purified peptides
Procedure: as §3

[12] = test system: Xanthomonas oryzae pv. oryzae strain Xoo28; conditions: Xoo Xoo28; rich medium, 24 h, purified peptides
[13] = Candida albicans SC5314 (Tables 10, 14)

CCCCCCCCCCCCCC(=O)N[C@@H](Cc1c[nH]c2ccccc12)C(=O)N[C@@H](CCCCN)C(=O)N[C@@H](CCCCN)C(=O)N[C@@H](CC(C)C)C(=O)N[C@@H](CCCCN)C(=O)N[C@@H](CCCCN)C(=O)N[C@@H](CC(C)C)C(=O)N[C@@H](CC(C)C)C(=O)N[C@@H](CCCCN)C(=O)N[C@@H](CCCCN)C(=O)N[C@@H](CC(C)C)C(=O)N[C@@H](CCCCN)C(=O)N[C@@H](CCCCN)C(=O)N[C@@H](CC(C)C)C(N)=O [pepD2M] (Myristoyl-WKKLKKLLKKLKKL-NH2)
MFC (Cgl FST02): 14.0 µg/mL (≈ 6.98 µM)
MBC/MFC (Cgl FST02; Cgl FST02, optimal minimal medium, crude peptides (Table 9)): 16.0 µg/mL (≈ 7.98 µM)
MFC (Candida albicans SC5314; [13]): 64 µg/mL (≈ 31.9 µM)
MIC (Candida albicans SC5314; [13]): 32 µg/mL (≈ 16 µM)
MFC [1]: 64 µg/mL (≈ 31.9 µM)
MIC [1]: 32 µg/mL (≈ 16 µM)
MFC [2]: 64 µg/mL (≈ 31.9 µM)
MIC [2]: 8 µg/mL (≈ 3.99 µM)
MBC/MFC (Botrytis cinerea): 12.0 µg/mL (≈ 5.99 µM)
MFC (Botrytis cinerea): 18.7 µg/mL (≈ 9.33 µM)
MBC/MFC (Erwinia chrysanthemi): 6.0 µg/mL (≈ 2.99 µM)
MIC (Erwinia chrysanthemi): 4.0 µg/mL (≈ 2 µM)
MBC/MFC [3]: 4.0 µg/mL (≈ 2 µM)
MIC [3]: 4.0 µg/mL (≈ 2 µM)
disease lesions caused by Bc (Bc): significantly reduced disease lesions
membranolytic effect on the cell walls of bacteria, fungal spores, and fungal mycelia [4]: significant membranolytic effect
MBC/MFC [5]: 8.0 µg/mL (≈ 3.99 µM)
MIC [5]: 8.0 µg/mL (≈ 3.99 µM)
MBC/MFC [6]: 10.0 µg/mL (≈ 4.99 µM)
MIC [6]: 8.0 µg/mL (≈ 3.99 µM)
disease lesions caused by Pcc (Pcc): significantly reduced disease lesions

CCCCCCCCCCCCCC(=O)N[C@@H](Cc1c[nH]c2ccccc12)C(=O)N[C@@H](CCCCN)C(=O)N[C@@H](CCCCN)C(=O)N[C@@H](CC(C)C)C(=O)N[C@@H](CCCCN)C(=O)N[C@@H](CCCCN)C(=O)N[C@@H](CC(C)C)C(=O)N[C@@H](CC(C)C)C(=O)N[C@@H](CCCCN)C(=O)N[C@@H](CCCCN)C(=O)N[C@@H](CC(C)C)C(N)=O [pepD3M] (Myristoyl-WKKLKKLLKKL-NH2)
MBC/MFC (Cgl FST02): 14.0 µg/mL (≈ 8.56 µM)
MIC (Cgl FST02): 14.0 µg/mL (≈ 8.56 µM)
MBC/MFC (Botrytis cinerea): 6.0 µg/mL (≈ 3.67 µM)
MIC (Botrytis cinerea): 5.3 µg/mL (≈ 3.24 µM)
MBC/MFC (Erwinia chrysanthemi): 6.0 µg/mL (≈ 3.67 µM)
MIC (Erwinia chrysanthemi): 5.0 µg/mL (≈ 3.06 µM)
MBC/MFC [3]: 4.0 µg/mL (≈ 2.45 µM)
MIC [3]: 4.0 µg/mL (≈ 2.45 µM)
disease lesions caused by Bc (Bc): significantly reduced disease lesions
membranolytic effect on the cell walls of bacteria, fungal spores, and fungal mycelia [4]: significant membranolytic effect
MBC/MFC [5]: 14.0 µg/mL (≈ 8.56 µM)
MIC [5]: 12.0 µg/mL (≈ 7.34 µM)
MBC/MFC [6]: 12.0 µg/mL (≈ 7.34 µM)
MIC [6]: 8.0 µg/mL (≈ 4.89 µM)
disease lesions caused by Pcc (Pcc): significantly reduced disease lesions

Ac-WKLLKKLLKLLKKLLKLL-NH2 [pepB]
MIC (Candida albicans SC5314; Candida albicans SC5314, 48 h at 35° C., 0.125 to 64 μg/mL (Table 5)): — (“—” indicates no antimicrobial activity being detected at the highest peptide concentration (64 μg/mL) tested.)
IC50 [7]: — (“—” indicates no antimicrobial activity being detected at the highest peptide concentration (20 μg/mL) tested in this study.)
IC50 [8]: — (“—” indicates no antimicrobial activity being detected at the highest peptide concentration (20 μg/mL) tested in this study.)
α-helix formation ([9]; 10% TFE): 90%
α-helix content ([9]; dissolved in water, structural deconvolution of CD spectra): about 25%
IC50 [10]: 16.7 µg/mL
IC50 [11]: — (“—” indicates no antimicrobial activity being detected at the highest peptide concentration (20 μg/mL) tested in this study.)
IC50 [12]: — (“—” indicates no antimicrobial activity being detected at the highest peptide concentration (20 μg/mL) tested in this study.)
